The record followed here is ChEMBL document CHEMBL3826963, “Pharmacological protection of mitochondrial function mitigates acute limb ischemia/reperfusion injury” (Bioorg Med Chem Lett, 2016).

One experiment concerns Mus musculus. Nature of the experiment: Anti-inflammatory activity in ICR mouse assessed as inhibition of xylene-induced ear edema at 1 umol/kg, po pretreated for 30 mins followed by xylene administration measured after 2 hrs relative to control. In kind it is functional.
Experiment [1] has as its system Rattus norvegicus. Nature of the experiment: Antithrombotic activity in Wistar rat model of thread-induced arterial thrombosis assessed as thrombus weight at 5 umol/kg measured after 2 to 3 hrs (reference value: 42.1 +/- 3.2 mg).
The test system of experiment [2] is Rattus norvegicus. Nature of the experiment: Anti-inflammatory activity in Wistar rat model of tourniquet-induced limb ischemia/reperfusion injury assessed as serum TNF-alpha level at 20 mg/kg, ip dosed 15 mins before and after 3 hrs of ischemia followed by 20 mg/kg, ip compound treatment for 1 hr before and after 4 hrs of reperfusion by ELISA (reference value: 185.1 +/- 23.5 pg/ml). In kind it is functional.

The test system of experiment [3] is Rattus norvegicus. Nature of the experiment: Anti-inflammatory activity in Wistar rat model of tourniquet-induced limb ischemia/reperfusion injury assessed as serum IL-6 level at 20 mg/kg, ip dosed 15 mins before and after 3 hrs of ischemia followed by 20 mg/kg, ip compound treatment for 1 hr before and after 4 hrs of reperfusion by ELISA (reference value: 580.3 +/- 95.2 pg/ml). It is filed as functional.

Experiment [4] deals with Rattus norvegicus. Nature of the experiment: Protection against Wistar rat model of tourniquet-induced limb ischemia/reperfusion injury-induced oxidative stress assessed as skeletal muscle GSH level at 20 mg/kg, ip dosed 15 mins before and after 3 hrs of ischemia followed by 20 mg/kg, ip compound treatment for 1 hr before and after 4 hrs of reperfusion (reference value: 0.82 +/- 0.19 umol/g). It is filed as functional.

Experiment [5] relates to PC-12. Nature of the experiment: Antioxidant activity in rat PC12 cells assessed as scavenging of H2O2/Fe2+ ion-induced hydroxyl radical by measuring increase in cell survival at 12.5 to 200 uM preincubated for 1 hr followed by H2O2/Fe2+ ion addition measured after 1 hr by MTT assay. In kind it is functional, cell-based.
In experiment [6] the test system is PC-12. Nature of the experiment: Antioxidant activity in rat PC12 cells assessed as scavenging of SNAP-induced NO radical by measuring increase in cell survival at 12.5 to 200 uM preincubated for 1 hr followed by SNAP addition measured after 2 hrs by MTT assay. It is filed as functional, cell-based.
The subject of experiment [7] is Rattus norvegicus. Nature of the experiment: Protection against Wistar rat model of tourniquet-induced limb ischemia/reperfusion injury-induced oxidative stress assessed as skeletal muscle CAT activity per mg protein at 20 mg/kg, ip dosed 15 mins before and after 3 hrs of ischemia followed by 20 mg/kg, ip compound treatment for 1 hr before and after 4 hrs of reperfusion (reference value: 25.64 +/- 5.29 U). It is filed as functional.

For experiment [8], the system named is PC-12. Nature of the experiment: Antioxidant activity in rat PC12 cells assessed as scavenging of hypoxanthine/xanthine oxidase-induced O2 radical by measuring increase in cell survival at 12.5 to 200 uM preincubated for 1 hr followed by hypoxanthine/xanthine oxidase addition by MTT assay. It is filed as functional, cell-based.
Experiment [9] concerns Rattus norvegicus. Nature of the experiment: Protection against Wistar rat model of tourniquet-induced limb ischemia/reperfusion injury-induced oxidative stress assessed as skeletal muscle SOD activity per mg protein at 20 mg/kg, ip dosed 15 mins before and after 3 hrs of ischemia followed by 20 mg/kg, ip compound treatment for 1 hr before and after 4 hrs of reperfusion (reference value: 0.41 +/- 0.09 U). It is filed as functional.

For experiment [10], the system named is Rattus norvegicus. Nature of the experiment: Protection against Wistar rat model of tourniquet-induced limb ischemia/reperfusion injury-induced oxidative stress assessed as skeletal muscle MDA level at 20 mg/kg, ip dosed 15 mins before and after 3 hrs of ischemia followed by 20 mg/kg, ip compound treatment for 1 hr before and after 4 hrs of reperfusion (reference value: 45.78 +/- 4.33 nmol/g). In kind it is functional.

Activity calls are given as the source filed them. No cut-off for these calls is given here. Where a SMILES comes first, the peptide text is derived from it.

On to `CC(=O)Oc1ccccc1C(=O)O` [ASPIRIN], for which the inhibition in vivo at 1 µmol/kg with Mus musculus stood at 50.3%. In the experiment on Rattus norvegicus [1], the Activity amounted to 28.5 mg.
For the molecule `COC(=O)COc1ccc(/C=C/C(=O)CC(=O)/C=C/c2ccc(OC)c(OC)c2)cc1OC`, the inhibition in vivo at 1 µmol/kg with Mus musculus was 25.1%. The Activity in the experiment with Rattus norvegicus [2] was found to be 160.7 pg/mL; in the experiment on Rattus norvegicus [3], 472.5 pg/mL; in the experiment on Rattus norvegicus [4], 1.55 µmol/g; in the experiment with Rattus norvegicus [7] it was 42.4 U/mg; in the experiment on Rattus norvegicus [1], 40.1 mg; with Rattus norvegicus [9], 0.58 U/mg. Further, the Activity in the experiment with Rattus norvegicus [10] is recorded as 30.12 nmol/g. Also, the result in the experiment with PC-12 [5] was Active. Moreover, the outcome with PC-12 [6] and in the experiment on PC-12 [8] was inactive.
With `COC(=O)COc1ccc(/C=C/C(=O)CC(=O)/C=C/c2ccc(O)c(OC)c2)cc1OC`, in the experiment on Mus musculus, the inhibition in vivo at 1 µmol/kg turned out to be 23.3%. For the same molecule, the Activity with Rattus norvegicus [2] came to 155.4 pg/mL; in the experiment with Rattus norvegicus [3], 450.8 pg/mL; in the experiment with Rattus norvegicus [4], 1.41 µmol/g; in the experiment on Rattus norvegicus [7], 44.6 U/mg; in the experiment on Rattus norvegicus [1], 39.7 mg; in the experiment on Rattus norvegicus [9], 0.64 U/mg. Moreover, in the experiment with Rattus norvegicus [10], the Activity turned out to be 32.47 nmol/g. The outcome in the experiment on PC-12 [5] was Active. The outcome in the experiment on PC-12 [6] and in the experiment on PC-12 [8] was inactive.
For the molecule `C[C@H](NC(=O)[C@@H]1CCCN1)C(=O)N[C@@H](CCCCN)C(=O)O` (H-Pro-Ala-Lys-OH), the Activity in the experiment on Rattus norvegicus [1] is 32.8 mg.
For `COc1cc(/C=C/C(=O)CC(=O)/C=C/c2ccc(OCC(=O)N[C@@H](CCCCN)C(=O)O)c(OC)c2)ccc1O`, the inhibition in vivo at 1 µmol/kg in the experiment with Mus musculus came to 41.1%. Further, the Activity with Rattus norvegicus [1] amounted to 34.5 mg.
For `COc1ccc(/C=C/C(=O)CC(=O)/C=C/c2ccc(OCC(=O)N[C@@H](CCCCN)C(=O)O)c(OC)c2)cc1OC`, in that order: 39.3% and 38.3 mg.
